Experimental data as given in PubChem BioAssay AID1259408 (Genetic Toxicology Data Bank (GENE-TOX), 2018).
Active and inactive are the calls of the source. The rule behind the calls is not given here.

System: GENE-TOX genotoxicity assays, various organisms and cells
Assay: GENE-TOX mutagenicity studies
Details: for call: Assay Type: In vivo carcinogenicity studies
[1] = Species/Cell Type: Chinese hamster lung (V79) cells, Assay Type: Forward gene mutation at the HPRT or ouabain locus, Assay Code: V79+, Evaluation Type: Evaluation A (Pre-1980)
[2] = Species/Cell Type: Nonhuman, Assay Type: Chromosome aberrations in vitro, Assay Code: CY&+, Evaluation Type: Evaluation A (Pre-1980)
[3] = Species/Cell Type: Nonhuman, Assay Code: CCG+L, Evaluation Type: Evaluation A (Pre-1980)
[4] = Species/Cell Type: Saccharomyces cerevisiae, Assay Type: Mitotic recombination or gene conversion, Assay Code: YEH-, Evaluation Type: Evaluation A (Pre-1980)
[5] = Species/Cell Type: Salmonella typhimurium (one or more of the five standard strains: TA98, TA100, TA1535, TA1537, and TA1538), Assay Type: Histidine reverse gene mutation, Ames assay, Assay Code: SAL-, Evaluation Type: Evaluation A (Pre-1980)
[6] = Species/Cell Type: Bacillus subtilis (H17 vs M45T), Assay Type: Rec-assay, spot test, DNA effects (bacterial DNA repair), Assay Code: REXT, Evaluation Type: Evaluation A (Pre-1980)
[7] = Species/Cell Type: Saccharomyces cerevisiae, Assay Type: Mitotic recombination or gene conversion, Assay Code: YEC-, Evaluation Type: Evaluation A (Pre-1980)
[8] = Species/Cell Type: Nonhuman, Assay Code: CCG-, Evaluation Type: Evaluation A (Pre-1980)
[9] = Species/Cell Type: Nonhuman, Assay Code: CCG+, Evaluation Type: Evaluation A (Pre-1980)
[10] = Species/Cell Type: Salmonella typhimurium (one or more of the five standard strains: TA98, TA100, TA1535, TA1537, and TA1538), Assay Type: Histidine reverse gene mutation, Ames assay, Assay Code: SALT, Evaluation Type: Evaluation A (Pre-1980)
[11] = Species/Cell Type: Salmonella typhimurium (one or more of the five standard strains: TA98, TA100, TA1535, TA1537, and TA1538), Assay Type: Histidine reverse gene mutation, Ames assay, Assay Code: SAL+*, Activation: With metabolic activation, Evaluation Type: Evaluation A (Pre-1980)
[12] = Species/Cell Type: Human lymphocytes, Assay Type: Sister-chromatid exchange (SCE) in vitro, Assay Code: SCL+D, Dose Response: With dose response, Evaluation Type: Evaluation B (Post-1980)
[13] = Species/Cell Type: Human, Assay Type: Sister-chromatid exchange (SCE) in vitro, Assay Code: SC1+D, Dose Response: With dose response, Evaluation Type: Evaluation B (Post-1980)
[14] = Species/Cell Type: Nonhuman, Assay Type: Sister-chromatid exchange (SCE) in vitro, Assay Code: SC2+D, Dose Response: With dose response, Evaluation Type: Evaluation B (Post-1980)

ClC(Cl)=C(c1ccc(Cl)cc1)c1ccc(Cl)cc1
mutagenic call [1]: active; positive | mutagenic call (Species/Cell Type: Drosophila melanogaster, Assay Type: Sex-linked recessive lethal gene mutation, Assay Code: SRLT, Evaluation Type: Evaluation A (Pre-1980)): no conclusion | mutagenic call (Species/Cell Type: Escherichia coli polA (W3119 vs P3478), Assay Type: Rec-assay, DNA effects (bacterial DNA repair), Assay Code: RE1T, Evaluation Type: Evaluation A (Pre-1980)): no conclusion | mutagenic call (Species/Cell Type: Mouse lymphoma (L5178Y) cells, Assay Type: Forward gene mutation at the thymidine kinase (TK) locus, chromosome aberrations, Assay Code: L51+/-*, Activation: With metabolic activation, Evaluation Type: Evaluation A (Pre-1980)): inactive; positive without activation, negative with activation | mutagenic call [2]: active; positive | call [3]: active; positive | mutagenic call [4]: inactive; negative | mutagenic call [5]: inactive; negative | mutagenic call (Species/Cell Type: Salmonella typhimurium, Serratia marcesens, Assay Type: Forward and reverse gene mutation, host-mediated assay, Assay Code: HM2-, Evaluation Type: Evaluation A (Pre-1980)): inactive; negative

Cc1cc(C)c(S(=O)(=O)O)cc1N=Nc1cc(S(=O)(=O)O)c2ccccc2c1O
mutagenic call (Species/Cell Type: Bacillus subtilis (H17 vs M45), Assay Type: Rec-assay, spot test, DNA effects (bacterial DNA repair), Assay Code: REWT, Evaluation Type: Evaluation A (Pre-1980)): no conclusion | mutagenic call [6]: no conclusion | mutagenic call [5]: inactive; negative

O=[N+]([O-])c1ccc(Oc2ccc(C(F)(F)F)cc2[N+](=O)[O-])cc1
mutagenic call [7]: inactive; negative

CCOP(=S)(OCC)SC1OCCOC1SP(=S)(OCC)OCC (stereo not drawn)
call [8]: inactive; negative

CC(C)NP(=O)(N1CC1)N1CC1
mutagenic call (Species/Cell Type: Drosophila melanogaster, Assay Type: Sex-linked recessive lethal gene mutation, Assay Code: SRL+, Evaluation Type: Evaluation A (Pre-1980)): active; positive | mutagenic call [2]: active; positive

c1ccc2c(c1)cc1ccc3c4ccccc4cc4ccc2c1c43
call [9]: active; positive

CC(=O)Nc1ccc(C(=O)CCl)cc1
call [8]: inactive; negative

CCNc1nc(Cl)nc(NCC)n1
mutagenic call (Species/Cell Type: Drosophila melanogaster, Assay Type: Aneuploidy, partial sex chromosome loss, chromosome aberrations, Assay Code: DAPT, Evaluation Type: Evaluation A (Pre-1980)): no conclusion | mutagenic call (Species/Cell Type: Drosophila melanogaster, Assay Type: Aneuploidy, sex chromosome gain, chromosome aberrations, Assay Code: DAGT, Evaluation Type: Evaluation A (Pre-1980)): no conclusion | mutagenic call (Species/Cell Type: Drosophila melanogaster, Assay Type: Aneuploidy, whole sex chromosome loss, chromosome aberrations, Assay Code: DAC-M, Evaluation Type: Evaluation A (Pre-1980)): inactive; negative | mutagenic call (Species/Cell Type: Human diploid fibroblasts, Assay Type: Unscheduled DNA synthesis (UDS) in vitro, DNA effects, Assay Code: UDH-, Evaluation Type: Evaluation A (Pre-1980)): inactive; negative | mutagenic call [7]: inactive; negative | mutagenic call [4]: inactive; negative | mutagenic call [10]: no conclusion | mutagenic call (Species/Cell Type: Syrian hamster embryo (SA7/SHE) cells, Assay Type: Cell transformation, viral enhanced, Assay Code: CT7+, Evaluation Type: Evaluation A (Pre-1980)): active; positive

O=NN1CCCC1
mutagenic call [1]: active; positive | call [9]: active; positive | mutagenic call (Species/Cell Type: Nonhuman, Assay Type: Sister-chromatid exchange (SCE) in vivo, Assay Code: SC3+, Evaluation Type: Evaluation B (Post-1980)): active; positive | mutagenic call (Species/Cell Type: Rat primary hepatocytes, Assay Type: Unscheduled DNA synthesis (UDS) in vitro, DNA effects, Assay Code: UDP+D, Dose Response: With dose response, Evaluation Type: Evaluation A (Pre-1980)): active; positive | mutagenic call [11]: active; positive

Cc1ccc(OC(=O)N(C)N=O)cc1C
mutagenic call (Species/Cell Type: Bacillus subtilis (H17 vs M45T), Assay Type: Rec-assay, spot test, DNA effects (bacterial DNA repair), Assay Code: REX+, Evaluation Type: Evaluation A (Pre-1980)): active; positive | mutagenic call (Species/Cell Type: Escherichia coli WP2, Assay Type: Tryptophan reverse gene mutation, Assay Code: WP2+, Evaluation Type: Evaluation A (Pre-1980)): active; positive

O=[N+]([O-])c1ccc(-c2ncn[nH]2)o1
mutagenic call (Species/Cell Type: Escherichia coli WP2, Assay Type: Tryptophan reverse gene mutation, Assay Code: WP2-, Evaluation Type: Evaluation A (Pre-1980)): inactive; negative | mutagenic call (Species/Cell Type: Escherichia coli WP2 UVRA, Assay Type: Tryptophan reverse gene mutation, Assay Code: WPU+, Evaluation Type: Evaluation A (Pre-1980)): active; positive

Nc1ccc(-c2nc(N(CCO)CCO)c3ccccc3n2)s1
mutagenic call [10]: no conclusion

O[C@@H]1[C@@H](O)[C@@H](O)c2c(cc3ccc4cccc5ccc2c3c45)[C@H]1O
mutagenic call (Species/Cell Type: Chinese hamster lung (V79) cells, Assay Type: Forward gene mutation at the HPRT or ouabain locus, Assay Code: V79-*, Activation: With metabolic activation, Evaluation Type: Evaluation A (Pre-1980)): inactive; negative

CC(=O)NNC(C)=O
mutagenic call (Species/Cell Type: Mammalian polychromatic erythrocytes, Assay Type: Micronucleus test, chromosome aberrations, Assay Code: MNTT, Evaluation Type: Evaluation B (Post-1980)): no conclusion

Clc1ccc(C(c2ccccc2Cl)C(Cl)Cl)cc1 (stereo not drawn)
mutagenic call [2]: active; positive

C/C(O)=C1/C(=O)[C@@H]2[C@H]3c4c[nH]c5cccc(c45)C[C@H]3C(C)(C)N2C1=O
mutagenic call [10]: no conclusion

BrC(Br)Br
mutagenic call [12]: active; positive | mutagenic call [13]: active; positive | mutagenic call [14]: active; positive | mutagenic call (Species/Cell Type: Nonhuman, Assay Type: Sister-chromatid exchange (SCE) in vivo, Assay Code: SC3+D, Dose Response: With dose response, Evaluation Type: Evaluation B (Post-1980)): active; positive

Cc1c(N)nc(C)c2c1[nH]c1ccccc12
mutagenic call [12]: active; positive | mutagenic call [13]: active; positive | call [9]: active; positive | mutagenic call [11]: active; positive | mutagenic call (Species/Cell Type: Syrian hamster embryo (SHE) cells, Assay Type: Cell transformation, clonal assay, Assay Code: CTC+, Evaluation Type: Evaluation A (Pre-1980)): active; positive

NP(=S)(N1CC1)N1CC1
mutagenic call [12]: active; positive | mutagenic call [13]: active; positive | mutagenic call [14]: active; positive

Cc1c2c(c(C)c3c1ccc1ccccc13)C=C[C@@H](O)[C@@H]2O
mutagenic call [1]: active; positive | mutagenic call (Species/Cell Type: Mouse prostate cells, Assay Type: Cell transformation, Assay Code: CTM+D, Dose Response: With dose response, Evaluation Type: Evaluation A (Pre-1980)): active; positive | call (Species/Cell Type: Nonhuman, Assay Code: CCGT, Evaluation Type: Evaluation A (Pre-1980)): no conclusion

[Cl-].[Cl-].[NH2-].[NH2-].[NH2-].[Pt+2]
mutagenic call (Species/Cell Type: Chinese hamster ovary (CHO) cells, Assay Type: Forward gene mutation at the HPRT locus, Assay Code: CHO+, Evaluation Type: Evaluation B (Post-1980)): active; positive

CCCCCCCCC1CC1CCCCCCCC(=O)OCCOCCOC (stereo not drawn)
mutagenic call (Species/Cell Type: Nonhuman, Assay Type: Sister-chromatid exchange (SCE) in vitro, Assay Code: SC2T, Evaluation Type: Evaluation B (Post-1980)): no conclusion

ONc1cccc2ccccc12
mutagenic call (Species/Cell Type: Escherichia coli polA (W3119 vs P3478), Assay Type: Rec-assay, DNA effects (bacterial DNA repair), Assay Code: RE1+, Evaluation Type: Evaluation A (Pre-1980)): active; positive | mutagenic call (Species/Cell Type: Neurospora crassa, Assay Type: Forward gene mutation, Assay Code: NEF+, Evaluation Type: Evaluation A (Pre-1980)): active; positive | call [3]: active; positive | mutagenic call (Species/Cell Type: Saccharomyces cerevisiae, Assay Type: Mitotic recombination or gene conversion, Assay Code: YEH+, Evaluation Type: Evaluation A (Pre-1980)): active; positive | mutagenic call (Species/Cell Type: Salmonella typhimurium (one or more of the five standard strains: TA98, TA100, TA1535, TA1537, and TA1538), Assay Type: Histidine reverse gene mutation, Ames assay, Assay Code: SAL+, Evaluation Type: Evaluation A (Pre-1980)): active; positive | mutagenic call (Species/Cell Type: Salmonella typhimurium, Assay Type: Forward and reverse gene mutation, host-mediated assay, Assay Code: HMA-, Evaluation Type: Evaluation A (Pre-1980)): inactive; negative

CN(C)CC/C=C1\c2ccccc2CSc2ccccc21
mutagenic call (Species/Cell Type: Rodents, Sex: Male, Assay Type: Dominant lethal test, Assay Code: DLT-, Evaluation Type: Evaluation A (Pre-1980)): inactive; negative

C[C@H](CCC(=O)O)[C@H]1CC[C@H]2[C@@H]3CC[C@@H]4C[C@H](O)CC[C@]4(C)[C@H]3CC[C@]12C
mutagenic call (Species/Cell Type: Fischer rat embryo (RLV/1706) cells, Assay Type: Cell transformation, viral enhanced, Assay Code: CTR+, Evaluation Type: Evaluation A (Pre-1980)): active; positive | mutagenic call (Species/Cell Type: Syrian hamster embryo (SHE) cells, Assay Type: Cell transformation, clonal assay, Assay Code: CTCT, Evaluation Type: Evaluation A (Pre-1980)): no conclusion

Nc1nnc(-c2ccc([N+](=O)[O-])o2)s1
call [9]: active; positive

O=S1(=O)OC(c2ccc(O)cc2)(c2ccc(O)cc2)c2ccccc21
mutagenic call [6]: no conclusion
